The values that follow come from patent US20250281473A1, “CDK Inhibitors And Their Use As Pharmaceuticals” (PRELUDE THERAPEUTICS INCORPORATED, priority 2024, published 2025).

The test system of assay [1] is TMD-8 subcutaneous xenograft. The experiment in a line: TMD-8 (DLBCL) cell line-derived subcutaneous xenograft, tumor growth. Format: in vivo. From the text: See FIG. 3 (Data represented as mean±SEM. N=8, ***P<0.001, ****P<0.0001 by Mann-Whitney U test). […]
(§1) See FIG. 9 (Data represented as mean±SEM. N=8, *P<0.05, **P<0.001, ***P<0.001 by Mann-Whitney U test).

In assay [2] the test system is LY2264 (DLBCL) patient-derived xenografts (PDX). The experiment in a line: LY2264 (DLBCL) patient-derived xenograft, tumor growth. Format: in vivo. From the text: See FIG. 6 (Data represented as mean±SEM. N=8, *P<0.05, **P<0.001, ***P<0.001 by Mann-Whitney U test).
The subject of another assay is U-2932 CDX. The experiment in a line: U-2932 (DLBCL) CDX, tumor growth. Format: in vivo.
From the text: as §1

Assay [3] has as its system PBMCs derived from patients with untreated or relapsed/refractory (R/R) CLL. Kind of assay: Caspase-Glo 3/7 activity assay in CLL patient PBMCs. The conditions noted are these: 6 h treatment; ex vivo patient PBMCs. Format: cell-based.
The subject of assay [4] is Mino CDX model of Ibrutinib resistant MCL. The experiment in a line: Mino CDX model of Ibrutinib resistant MCL, tumor growth. Format: in vivo. The conditions noted are these: Formula (I) i.v. 15 mg/kg, QW BID q2h. From the text: Anti-tumor activity remains similar to the parental Mino model. Ibrutinib-resistance was induced through repeat in vivo passage and treatment with Ibrutinib. See FIG. 15 (Data represented as mean±SEM. N=7, *P<0.05, ****P<0.0001 by Mann-Whitney U test).

For assay [5], the system named is DLBCL (SUDHL4, OCI-Ly-10, and TMD-8) and CLL (HG-3, JVM-3, and MEC-1) cell lines. The experiment in a line: Caspase 3/7-Glo assay in DLBCL and CLL cell lines. Format: cell-based. The conditions noted are these: 6 h treatment.
Assay [6] concerns SUDHL4 subcutaneous xenograft. The experiment in a line: SUDHL4 subcutaneous xenograft, tumor growth. Format: in vivo. The conditions noted are these: Formula (I) 30 mg/kg intravenously QW, BID q2h. From the text:
(§2) See FIG. 3 (Data represented as mean±SEM. N=8, ***P<0.001, ****P<0.0001 by Mann-Whitney U test).

Assay [7] deals with Karpas-422 subcutaneous xenograft. The experiment in a line: Karpas-422 subcutaneous xenograft, tumor growth. The format is in vivo. The conditions noted are these: Formula (I) 30 mg/kg intravenously QW, BID q2h.
From the text: as §2

In assay [8] the test system is Ibrutinib-sensitive and Ibrutinib-resistant MCL cell lines. Kind of assay: CTG assay in MCL cell lines. Format: cell-based. The conditions noted are these: in vitro.

As to `C=CC(=O)N1CCC([C@@H]2CCNc3c(C(N)=O)c(-c4ccc(Oc5ccccc5)cc4)nn32)CC1` [Zanubrutinib, reference compound], the tumor growth inhibition in [1] (Example 2, FIG. 5, Zanubrutinib 5 mg/kg, BID orally) turned out to be 44%; in assay [2] (Zanubrutinib alone, 25 mg/kg QD orally) it was 64%.

Turning to `CC1(C)CCC(CN2CCN(c3ccc(C(=O)NS(=O)(=O)c4ccc(NCC5CCOCC5)c([N+](=O)[O-])c4)c(Oc4cnc5[nH]ccc5c4)c3)CC2)=C(c2ccc(Cl)cc2)C1` [Venetoclax, reference compound], in the assay with U-2932 CDX (Venetoclax 50 mg/kg QD orally), the tumor growth inhibition came out at 37%.

In the case of `Cc1cnc(NC(=O)[C@H]2CCC[C@@H](NC(=O)CC#N)C2)cc1-c1cc(F)c2ncn(C(C)C)c2c1` [Formula (I)], the tumor growth inhibition is given as 49% in assay [1] (Example 1, FIG. 3, Formula (I) 7.5 mg/kg intravenously QW, BID q2h); 62% in assay [1] (Example 1, FIG. 3, Formula (I) 15 mg/kg intravenously QW, BID q2h); 83% in [1] (Example 1, FIG. 3, Formula (I) 30 mg/kg intravenously QW, BID q2h); 46% in [1] (Example 2, FIG. 5, Formula (I) monotherapy 7.5 mg/kg i.v., BID q2h QW); 49% in assay [1] (Example 3, FIG. 9, Formula (I) monotherapy 7.5 mg/kg i.v. QW BID q2h); 37% in the assay with U-2932 CDX (Formula (I) monotherapy 7.5 mg/kg i.v. QW BID q2h). The tumor growth inhibition is listed as 125% in assay [6]; 108% in assay [7]; 40% in assay [2] (Formula (I) alone, 30 mg/kg i.v. QW, BID q2h). The “induction of apoptosis (caspase 3/7)” value in assay [3] and in assay [5] was “induction of apoptosis” in each case. The “tumor growth inhibition (in words)” value in assay [4] is given as “significant tumor growth inhibition”. For the same compound, the “activity in CTG assay (in words)” value in assay [8] is “shows activity”.
